{
  "source": "patent US4713457A",
  "about": "“Ergoline derivatives and acid addition salts thereof” (priority 1985, dated 1987)",
  "key": {"[1]": {"test_system": "ddY male mice, reserpine-induced immobility", "experiment": "Activity on reserpine-induced immobility (open-field method)", "assay_type": "in vivo, mouse", "details": "10 mg/kg i.p.; reserpine 2 mg/kg; total of 1-min counts at 15, 30, 45, 60 min; n = 6; ***p < 0.001", "experimental": "Reserpine was administered intraperitoneally to ddY male mice (4 week old) at a dose of 2 mg/kg, and, after 18 to 20 hours, the test compound was administered intraperitoneally to the mice. Thereafter, the ambulation (the number of times of the animal crossed the demarcation line) of the mice was counted for a period of 1 minute at 15, 30, 45 and 60 minutes after the administration of the test compound, respectively, according to the open-field method. The total number of ambulation determined at 4 times in each mouse and compared with that of the control."}, "[2]": {"details": "J. Affect. Disord., Vol. 1, 173 (1979); cited from earlier work"}},
  "data": [
    {"smiles": "CC(C)C[C@H]1C(=O)N2CCC[C@H]2[C@]2(O)O[C@](NC(=O)[C@@H]3C=C4c5cccc6[nH]c(Br)c(c56)C[C@H]4N(C)C3)(C(C)C)C(=O)N12", "note": "[Bromocriptine Methanesulfonate]", "values": [
      {"measurement": "Ambulation", "setting": "[1]", "value": "36.7 ± 12.3"},
      {"measurement": "Anti-depressive activity (known)", "setting": "[2]", "value": "has been known to have an anti-depressive activity"}
    ]}
  ]
}
